# Assays:
# Assay in all cases: relative viability (nuclei count vs DMSO), 5 days (fraction); higher = more cells survive
# kb NB 142-70 + Dasatinib = compound: C1CSC2=C(C(=O)N1)SC3=C2C=C(C=C3)O [kb NB 142-70] + Cc1nc(Nc2ncc(C(=O)Nc3c(C)cccc3Cl)s2)cc(N2CCN(CCO)CC2)n1 [Dasatinib] (partner 0.075 µM)
# Method in brief: (§1)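 The day after seeding in 1536-well plates, lung cancer cell lines were treated by pin tool with a single drug, or with a fixed anchor-drug dose together with five library-drug doses (not always all listed) in √10 steps. After 5 days, a combined fix-and-stain solution (final 0.05% Triton X-100, 1% formaldehyde, 1 ug/ml Hoechst) was added. Nuclei counted on 4× images gave relative viability as treated counts over vehicle counts, reported as the median of duplicate plates.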
# [1] = compound: NCC(=O)Nc1ccc(-n2nc(C(F)(F)F)cc2-c2ccc3c(ccc4ccccc43)c2)cc1 + Cc1nc(Nc2ncc(C(=O)Nc3c(C)cccc3Cl)s2)cc(N2CCN(CCO)CC2)n1 [Dasatinib] (partner 0.075 µM)
# Method in brief: as §1
# [2] = compound: NCC(=O)Nc1ccc(-n2nc(C(F)(F)F)cc2-c2ccc3c(ccc4ccccc43)c2)cc1 + CC(=O)c1c(C)c2cnc(Nc3ccc(N4CCNCC4)cn3)nc2n(C2CCCC2)c1=O [Palbociclib] (partner 0.5 µM)
# Method in brief: as §1
# [3] = compound: C1CSC2=C(C(=O)N1)SC3=C2C=C(C=C3)O [kb NB 142-70] + CC(C)C[C@H](NC(=O)[C@H](Cc1ccccc1)NC(=O)c1cnccn1)B(O)O [Bortezomib] (partner 0.002 µM)
# Method in brief: as §1
# [4] = compound: C1CSC2=C(C(=O)N1)SC3=C2C=C(C=C3)O [kb NB 142-70] + C[C@]1(O)C[C@@H](c2nc(-c3ccc4ccc(-c5ccccc5)nc4c3)c3c(N)nccn32)C1 [Linsitinib] (partner 1 µM)
# Method in brief: as §1
Cell Line,relative viability (kb NB 142-70 + Dasatinib; first compound 0.1 µM),relative viability (kb NB 142-70 + Dasatinib; first compound 1 µM),relative viability (kb NB 142-70 + Dasatinib; first compound 3.162 µM),relative viability ([1]; first compound 0.02 µM),relative viability ([1]; first compound 0.06325 µM),relative viability ([1]; first compound 0.2 µM),relative viability ([1]; first compound 0.6325 µM),relative viability ([1]; first compound 2 µM),relative viability ([2]; first compound 0.02 µM),relative viability ([2]; first compound 0.06325 µM),relative viability ([2]; first compound 0.2 µM),relative viability ([2]; first compound 0.6325 µM),relative viability ([2]; first compound 2 µM),relative viability ([3]; first compound 0.1 µM),relative viability ([3]; first compound 1 µM),relative viability ([3]; first compound 3.162 µM),relative viability ([4]; first compound 0.1 µM),relative viability ([4]; first compound 1 µM),relative viability ([4]; first compound 3.162 µM)
PC-3 [JPC-3],0.94,1.05,1.02,1.08,0.981,1.02,1.03,1.11,0.536,0.561,0.578,0.524,0.571,0.8,0.83,0.898,0.971,0.98,0.881
PC-14,0.299,0.239,0.224,0.281,0.303,0.297,0.234,0.302,0.494,0.557,,0.524,0.46,0.896,0.932,0.82,0.982,0.968,0.955
RERF-LC-KJ,0.834,0.872,0.752,0.809,0.985,0.835,0.878,0.76,0.936,1.2,1.03,1.06,1.02,1.18,1.29,0.946,0.918,0.957,0.923
SK-LU-1,0.176,0.163,0.119,0.165,0.186,0.181,0.175,0.181,0.447,0.442,0.404,0.372,0.434,1.19,1.05,0.839,1.26,0.986,0.557
SW 1573,0.491,0.458,0.188,0.471,0.383,0.586,0.471,0.424,0.409,0.466,0.344,0.384,0.36,1.18,0.967,0.322,0.744,0.693,0.351

# From the supplement of paper PMC10307832
